Assay results taken from US6706716B2, “Compounds specific for the human α1d adrenergic receptor and uses thereof” (Synaptic Pharmaceutical Corporation, priority 1998, dated 2004).

Biological target: T1, α1A adrenoceptor (Rattus norvegicus, UniProt P43140)
T1 construct: from tissue; host or cells: rat epididymal vas deferens
T1 sequence (P43140 1-466): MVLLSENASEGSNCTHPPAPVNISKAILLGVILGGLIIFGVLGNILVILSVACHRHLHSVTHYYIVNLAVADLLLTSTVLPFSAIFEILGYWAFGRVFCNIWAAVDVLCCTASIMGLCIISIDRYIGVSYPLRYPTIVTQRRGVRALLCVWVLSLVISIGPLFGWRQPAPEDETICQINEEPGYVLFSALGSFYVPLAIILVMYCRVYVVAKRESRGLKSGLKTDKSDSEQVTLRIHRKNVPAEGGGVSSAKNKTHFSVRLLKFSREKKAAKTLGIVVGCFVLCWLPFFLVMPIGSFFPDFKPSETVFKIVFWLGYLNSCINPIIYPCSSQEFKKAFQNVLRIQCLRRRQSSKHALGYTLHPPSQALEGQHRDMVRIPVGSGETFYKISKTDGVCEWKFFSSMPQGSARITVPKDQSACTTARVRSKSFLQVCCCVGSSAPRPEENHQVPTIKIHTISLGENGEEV
Assay: Isolated tissue functional assay, epididymal vas deferens (phenylephrine induced contraction)
Procedure: The functional in vitro activity of Compound 7 was characterized in several pharmacologically defined α1 adrenoceptor subtype isolated tissue assays (Aboud et al., 1993). (Rat epididymal vas deferens was used to determine α1A functional responses, spleen was used for α1B responses, and thoracic aorta was used for α1D responses.) Experiments were carried out according to the method of Deng et al., 1996, with minor buffer and tissue setup tension modifications. Krebs additionally contained 0.1 μM desipramine and 10 μM corticosterone to block neuronal and extra neuronal uptake, respectively, and 0.3 μM idazoxan to eliminate α2 mediated responses. Aorta and vas deferens strips were set at 0.5 g resting tension, and the splenic preparations were tensioned to 1 g. All preparations were equilibrated for 1 hr before the addition of drugs.
Additionally, its antagonist potency was determined by its ability to antagonize phenylephrine (PE) induced contraction in each of these preparations. The degree of shift of the PE agonist dose response-curve in the presence of Compound 7 was measured and pKB values were calculated (mean±s.e.m.).

SMILES: O=C1CC2(CCCC2)CC(=O)N1CCN1CCN(c2cc(F)c(F)cc2F)CC1 [Compound 7, 8-{2-[4-(2,4,5-Trifluorophenyl)piperazin-1-yl]ethyl}-8-azaspiro[4.5]decane-7,9-dione]
- agonist activity (concentrations up to 10 μM, rat vas deferens (α1A model)): failed to produce agonist activity
- Kb (rat epididymal vas deferens (α1A), mean±s.e.m., read-out: pKB (antagonism of phenylephrine induced contraction) (converted)): 6.31 µM
- fold less potent than in the aorta (vas deferens versus aorta): approximately 2000 fold
